Measured values: patent publication US7547513B2, “Mutants of deoxycytidine kinase having extended enzymatic activity” (priority 2001, dated 2009)

What was measured:
Assay type in all cases: cell-based
[1] = system: Escherichia coli β7338 Δdeo tdk cdd::Tn10 pSUDCK4 (dck:D133E-R104Q); conditions: strain β7338, dck allele D133E R104Q; 18 h 37° C., MS medium + IPTG
Method: (§1) The culture was then diluted 100 times in the same medium supplemented with IPTG and distributed on 96-well microplates in a final volume of 100 μl in a series of dilutions from to 2 to 2 nucleotide analogues. Each analogue was tested twice. After incubation for 18 hours at 37° C. with stirring, the MIC was determined as corresponding to the lowest analogue concentration for which no turbidity was detectable.
(§2) The toxicity of nucleoside analogues, deviating either by the sugar or by the base, was evaluated in strains of genotype Δdeo tdk cdd expressing on a plasmid the different dckH alleles, wild-type allele, D133E, R104Q and double mutant.
(§3) The minimum inhibitory concentrations, expressed in microM, were determined as indicated in the section Materials and Methods.

[2] = system: Escherichia coli β7334 Δdeo tdk cdd::Tn10 pSUTrc (dck allele: none); conditions: strain β7334, dck allele none; 18 h 37° C., MS medium + IPTG
Method: as §1, §2, §3

[3] = system: Escherichia coli strains of genotype Δdeo tdk cdd expressing the different dckH alleles; assay: MIC toxicity in strains Δdeo tdk cdd expressing any dckH allele; conditions: whatever the DCK allele
Method: as §1, §2

[4] = system: Escherichia coli β7343 Δdeo tdk cdd::Tn10 (dckH D133E R104Q, amkG wt); assay: microbe, parasite or virus in culture; conditions: strain β7343, dckH D133E R104Q, amkG wt
Method: as §1
(§4) We jointly expressed, within the genetic context Δdeo tdk cdd each of the four alleles of dckH with each of the two wt and T39A alleles of amkG, and tested the toxicity of the different nucleoside analogues already tested previously (Table 4 below).
as §3

[5] = system: Escherichia coli β7346 Δdeo tdk cdd::Tn10 (dckH D133E, amkG T39A); assay: microbe, parasite or virus in culture; conditions: strain β7346, dckH D133E, amkG T39A
Method: as §1, §4, §3

[6] = system: Escherichia coli β7345 Δdeo tdk cdd::Tn10 (dckH wt, amkG T39A); assay: microbe, parasite or virus in culture; conditions: strain β7345, dckH wt, amkG T39A
Method: as §1, §4, §3

[7] = system: Escherichia coli β7340 Δdeo tdk cdd::Tn10 (dckH wt, amkG wt); assay: microbe, parasite or virus in culture; conditions: strain β7340, dckH wt, amkG wt
Method: as §1, §4, §3

[8] = system: Escherichia coli β7344 Δdeo tdk cdd::Tn10 (dckH none, amkG T39A); assay: microbe, parasite or virus in culture; conditions: strain β7344, dckH none, amkG T39A
Method: as §1, §4, §3

[9] = system: Escherichia coli β7339 Δdeo tdk cdd::Tn10 (dckH none, amkG wt); assay: microbe, parasite or virus in culture; conditions: strain β7339, dckH none, amkG wt
Method: as §1, §4, §3

[10] = system: Escherichia coli β7348 Δdeo tdk cdd::Tn10 (dckH D133E R104Q, amkG T39A); assay: microbe, parasite or virus in culture; conditions: strain β7348, dckH D133E R104Q, amkG T39A
Method: as §1, §4, §3

[11] = system: Escherichia coli β7341 Δdeo tdk cdd::Tn10 (dckH D133E, amkG wt); assay: microbe, parasite or virus in culture; conditions: strain β7341, dckH D133E, amkG wt
Method: as §1, §4, §3

[12] = system: Escherichia coli β7342 Δdeo tdk cdd::Tn10 (dckH R104Q, amkG wt); assay: microbe, parasite or virus in culture; conditions: strain β7342, dckH R104Q, amkG wt
Method: as §1, §4, §3

[13] = system: Escherichia coli β7347 Δdeo tdk cdd::Tn10 (dckH R104Q, amkG T39A); assay: microbe, parasite or virus in culture; conditions: strain β7347, dckH R104Q, amkG T39A
Method: as §1, §4, §3

[14] = system: Escherichia coli β7337 Δdeo tdk cdd::Tn10 pSUDCK3 (dck:R104Q); conditions: strain β7337, dck allele R104Q; 18 h 37° C., MS medium + IPTG
Method: (§5) The culture was then diluted 100 times in the same medium supplemented with IPTG and distributed on 96-well microplates in a final volume of 100 μl in a series of dilutions from to 2 to 2 nucleotide analogues. Each analogue was tested twice.
as §2, §3

[15] = system: Escherichia coli β7335 Δdeo tdk cdd::Tn10 pSUDCK1 (dck wt); conditions: DCK wt
Method: as §5, §2, §3

[16] = system: Escherichia coli β7336 Δdeo tdk cdd::Tn10 pSUDCK2 (dck:D133E); conditions: strain β7336, dck allele D133E; 18 h 37° C., MS medium + IPTG
Method: as §5, §2, §3

| SMILES | minimum inhibitory concentration (MIC) [1] [µM] | minimum inhibitory concentration (MIC) [2] | MIC [3] [µM] | minimum inhibitory concentration (MIC) [4] | minimum inhibitory concentration (MIC) [5] | minimum inhibitory concentration (MIC) [6] | minimum inhibitory concentration (MIC) [7] | minimum inhibitory concentration (MIC) [8] | minimum inhibitory concentration (MIC) [9] | minimum inhibitory concentration (MIC) [10] | minimum inhibitory concentration (MIC) [11] | minimum inhibitory concentration (MIC) [12] | minimum inhibitory concentration (MIC) [13] | minimum inhibitory concentration (MIC) [14] [µM] | substrate of DCK wt (from toxicity tests of Table 3) [15] | minimum inhibitory concentration (MIC) [16] [µM] |
| --- | --- | --- | --- | --- | --- | --- | --- | --- | --- | --- | --- | --- | --- | --- | --- | --- |
| Nc1ncn([C@H]2C[C@H](O)[C@@H](CO)O2)c(=O)n1 [5-aza-dC, 5-aza-2′-deoxycitidine] | 1.25 | > (no toxicity could be detected at the highest analogue concentration, 1.28 mM) | < 1.25 | ≦1.25 microM | ≦1.25 microM | ≦1.25 microM | ≦1.25 microM | > (no toxicity could be detected at the highest analogue concentration, 1280 microM) | > (no toxicity could be detected at the highest analogue concentration, 1280 microM) | ≦1.25 microM | ≦1.25 microM | ≦1.25 microM | ≦1.25 microM | – | – | – |
| Cc1cn([C@H]2C[C@H](N=[N+]=[N-])[C@@H](CO)O2)c(=O)[nH]c1=O [AZT, 3′-azido-3′dexoythymidine] | 1280 | > (no toxicity could be detected at the highest analogue concentration, 1.28 mM) | – | > (no toxicity could be detected at the highest analogue concentration, 1280 microM) | – | > (no toxicity could be detected at the highest analogue concentration, 1280 microM) | > (no toxicity could be detected at the highest analogue concentration, 1280 microM) | > (no toxicity could be detected at the highest analogue concentration, 1280 microM) | > (no toxicity could be detected at the highest analogue concentration, 1280 microM) | > (no toxicity could be detected at the highest analogue concentration, 1280 microM) | > (no toxicity could be detected at the highest analogue concentration, 1280 microM) | > (no toxicity could be detected at the highest analogue concentration, 1280 microM) | > (no toxicity could be detected at the highest analogue concentration, 1280 microM) | 640 | not a substrate | 640 |
